The source of these data is publication PMC11054274, “Dual Antitubercular and Antileishmanial Profiles of Quinoxaline Di-N-Oxides Containing an Amino Acidic Side Chain” (Pharmaceuticals, 2024).

Data set [1] has as its system Leishmania amazonensis promastigotes. The data set is described as follows: Promastigote susceptibility assay (resazurin), L. amazonensis. Conditions: for L. amazonensis promastigote selectivity index (SI): SI = CC50 (J774 macrophages)/IC50. The class given is cell-based. How it is done: (§1) The following species of Leishmania were used: L. donovani (MHOM/IN/80/DD8), which was purchased (ATCC, Manassas, VA, USA), and L. amazonensis (MHOM/Br/79/Maria), which was kindly provided by Prof. Alfredo Toraño (Instituto de Salud Carlos III, Madrid, Spain). Promastigotes were cultured in Schneider’s Insect Medium supplemented with 10% heat-inactivated Fetal Bovine Serum (FBS) (SIGMA-Merck, Madrid, Spain) and 1000 U/L of penicillin plus 100 mg/L of streptomycin in 25 mL culture flasks at 26 °C.
(§2) The activity of the compounds on Leishmania promastigotes was performed according to the method previously reported by us. Briefly, promastigotes (2.5 × 10^5 parasites/well) were cultured in 96-well plastic plates. The compounds were dissolved in dimethylsulfoxide (DMSO). Serial dilutions at 1:2 of the test compounds in fresh culture medium were performed (100, 50, 25, 12.5, 6.25, 3.12, 1.56 and 0.78 µg/mL) in a final volume of 200 µL; the solutions were then added to the parasite suspension. After an incubation period of 48 h at 26 °C, a volume of 20 μL of 2.5 mM resazurin solution in PBS was added and the plates were incubated for 3 h under the same conditions. Finally, the Relative Fluorescence Unit (RFU) (535ex–590em nm wavelength) was determined in a fluorimeter (Infinite 200 Tecan i-Control). Growth inhibition (%) was calculated by 100—[(RFU treated wells—RFU signal-to-noise)/(RFU untreated—RFU signal-to-noise) × 100]. All tests were carried out in triplicate and the IC50 was calculated by probit analysis using SPSS 17.0 Statistics Software. Miltefosine (Sigma-Merck, Madrid, Spain) was used as the reference drug.

The test system of data set [2] is Leishmania donovani amastigotes. Description: Intracellular amastigote assay in J774 macrophages, L. donovani. It counts as cell-based. Conditions: for IC50: Table S3, intracellular amastigotes, 48 h. How it is done:
(§3) We performed an intracellular amastigote assay on L. amazonensis and L. donovani according to a fluorometric method reported by us. To carry out the in vitro macrophage infections, 5 × 10^4 cells were cultured in RPMI-1640 medium and then were infected with 5 × 10^5 promastigotes. In the L. donovani assays, the plates were incubated for 48 h at 37 °C, while in the L. amazonensis assays, they were incubated at 33 °C for the first 24 h and then the temperature was increased to 37 °C for the next 24 h. After, the culture medium was removed and the cells were washed with buffered RPMI-HEPES at pH 7.4 several times in order to eliminate the non-internalized promastigotes. A total of 100 µL of fresh medium tempered at 37 °C was added to the infected cells, which then were exposed to 100 µL of the test compounds in RPMI-1640 at different concentrations (100, 50, 25, 12.5, 6.25, 3.12, 1.56 and 0.78 µg/mL in a final volume of 200 µL) for 48 h at 37 °C. The culture medium was removed by centrifugation at 3500 rpm for 5 min (Centrifuge 5403 Eppendorf) and a lysis solution (0.02% sodium dodecyl sulfate in RPMI-HEPES) was added. After 20 min, the treated cells were harvested (centrifugation at 3500 rpm for 5 min at 4 °C) and the supernatants were replaced by 200 μL of fresh Schneider’s culture medium. The plates were then incubated at 26 °C for another 3 days to allow for the transformation of viable amastigotes into promastigotes and proliferation. Afterwards, 20 μL/well of 2.5 mM resazurin was added and incubated for another 3 h. Finally, URF was measured and IC50 was estimated as described above. All tests were carried out in triplicate. Miltefosine was used as the reference drug.

Data set [3] can be described thus: Cytotoxicity assay on macrophages (resazurin). Conditions: mouse, J774 macrophages, 24 h exposure, read-out: Toxicity against J774 macrophages CC50. It counts as cell-based, murine. How it is done: (§4) J774 murine macrophages were grown in RPMI-1640 medium (Sigma) supplemented with 10% heat-inactivated FBS (30 min at 56 °C) (SIGMA-Merck), penicillin G (100 U/mL) and streptomycin (100 µg/mL). For the experiments, cells in the pre-confluence phase were harvested with trypsin. Cell cultures were maintained at 37 °C in a humidified environment with 5% CO2.
(§5) Cell viability was evaluated using a modification with resazurin of the colorimetric method described previously. J774 macrophages were seeded (5 × 10^4 cells/well) in 96-well flat-bottom microplates with 100 µL of RPMI-1640 medium. The cells were allowed to adhere for 4 h at 37 °C in 5% CO2, then different concentrations of the test compounds in 100 µL of the medium were added and exposed for 24 h. Growth controls were also included. To evaluate cell viability, 20 µL of a 2.5 mM resazurin solution was added and the plates were returned to the incubator for another 3 h. The reduction in resazurin was determined by measuring the fluorescence intensity (excitation wavelength, 535 nm; emission wavelength, 590 nm). Each concentration was assayed three times. The medium and controls were used in each test as blanks. The cytotoxic effect of the compounds was defined as the 50% reduction in cell viability of treated culture cells with respect to the untreated culture (CC50).

Data set [4] deals with Leishmania amazonensis amastigotes. Description: Intracellular amastigote assay in J774 macrophages, L. amazonensis. The class given is cell-based. The settings on record: for L. amazonensis amastigote selectivity index (SI): SI = CC50 (J774 macrophages)/IC50. The procedure: as §3
Data set [5] has as its system Leishmania donovani promastigotes. Description: Promastigote susceptibility assay (resazurin), L. donovani. The class given is cell-based. The settings on record: for IC50: Table S2, promastigotes, 48 h; for L. donovani promastigote selectivity index (SI): SI = CC50 (J774 macrophages)/IC50. The procedure: as §1, §2
The test system of data set [6] is J774 murine macrophages. Description: Cytotoxicity assay on macrophages (resazurin). The class given is cell-based. Conditions: 24 h exposure, read-out: Toxicity against J774 macrophages CC50. The procedure: as §4, §5
For data set [7], the system named is Mycobacterium tuberculosis H37Rv. Description: In vitro activity against Mycobacterium tuberculosis H37Rv, microdilution AlamarBlue broth assay (BacTiter-Glo alternative read-out). It counts as cell-based. The settings on record: Table S1, Mtb H37Rv; for IC50: read-out: IC50, antibacterial activity against Mtb H37Rv; for IC90: read-out: IC90, antibacterial activity against Mtb H37Rv.

[8] abbreviates: Leishmania amazonensis, J774, Table S3, intracellular amastigotes, 48 h, read-out: L. amazonensis IC50 (amastigote).
[9] abbreviates: Table S2, promastigotes, 48 h, read-out: L. amazonensis IC50 (promastigote).
The mark [10] stands for this setting: read-out: IC50 against L. amazonensis amastigotes.
Where [11] appears, read: Table S3, intracellular amastigotes, 48 h, read-out: L. amazonensis IC50 (amastigote).
The mark [12] stands for this setting: Leishmania amazonensis, Table S2, promastigotes, 48 h, read-out: L. amazonensis IC50 (promastigote).

Like-named read-outs stand apart in the source and are kept apart here. Some results are limits rather than exact numbers.

As for `CCCCCCCCCCCCCCCCOP(=O)([O-])OCC[N+](C)(C)C` [Miltefosine, reference compound], the IC50 in data set [1] (Leishmania amazonensis, read-out: IC50 against L. amazonensis (promastigote)) is 47.9 µM; in data set [2] (Leishmania donovani, J774), 7.1 µM; in data set [4] (setting [8]) it was 47.6 ± 7.4 µM; in data set [4] (Leishmania amazonensis, J774, read-out: IC50 against L. amazonensis amastigotes), 136 µM; in data set [5] (Leishmania donovani) it was 0.2 ± 0.02 µM. Further, in data set [1], the “L. amazonensis promastigote selectivity index (SI)” value is reported as 2.8. Moreover, the “L. donovani amastigote selectivity index (SI)” value in data set [2] (SI = CC50 (J774 macrophages)/IC50) was 19.1. For the same compound, the cytotoxic concentration (CC50) at 24 h amounted to 136 ± 10.3 µM in data set [3] (Table S2) and 136 µM in data set [3] (Table S3). The figures for the “L. amazonensis amastigote selectivity index (SI)” value in data set [4] and in data set [4] (listed as miltefosine) were 2.9 and 2.87, respectively. Also, in data set [5], the “L. donovani promastigote selectivity index (SI)” value is 680.5.
On to “N-(1,4-Dioxide-3-((4-fluorophenyl)quinoxaline-2-carbonyl)glycine methyl ester [Compound 4d]”, for which the IC50 in data set [1] (setting [9]) was found to be 125 ± 1.43 µM; in data set [2], 234 ± 5.9 µM; in data set [4] (setting [10]), 9.8 µM; in data set [7], 28.6 µM; in data set [5], 165 ± 10.2 µM. For the same compound, the CC50 in data set [6] (Table S2) and in data set [6] (Table S3) was 539 µM each time. Besides, the concentration for an effect of 90% (IC90) in data set [7] came to 47.7 µM.
As for “N-(6-Methoxy-1,4-dioxide-3-(4-trifloromethylphenyl)quinoxaline-2-carbonyl)glycine methyl ester [Compound 4h]”, the IC50 is 122 ± 9.9 µM in data set [1] (setting [9]); 39.5 ± 7.5 µM in data set [2]; 20.9 ± 4 µM in data set [4] (setting [11]); 8.46 µM in data set [7]; 25.3 ± 1.55 µM in data set [5]. Besides, the cytotoxic concentration (CC50) in data set [6] (Table S2) and in data set [6] (Table S3) was 554 µM in each case. In addition, the IC90 in data set [7] was 12.4 µM.
With `COC(=O)CNC(=O)c1c(-c2ccc(F)cc2)[n+]([O-])c2cc(C)ccc2[n+]1[O-]` [Compound 4m, N-(6-Methyl-1,4-dioxide-3-(4-fluorophenyl)-quinoxaline-2-carbonyl)glycine methyl ester], the IC50 worked out at 62.8 ± 1.6 µM in data set [1] (setting [9]); 285 ± 115 µM in data set [2]; 74.4 µM in data set [4] (setting [10]); 18.3 µM in data set [7]; 84.8 ± 8.9 µM in data set [5]. Also, the CC50 in data set [6] (Table S2) and in data set [6] (Table S3) was 454 µM in each case. In data set [7], the IC90 worked out at 36.5 µM.
For the compound `COc1ccc2c(c1)[n+]([O-])c(-c1ccc(C)cc1)c(C(=O)O)[n+]2[O-]` [Compound 6, 2-Carboxy-6-methoxy-3-(4-tolyl)quinoxaline 1,4-dioxide], the IC50 in data set [1] (setting [12]) is 20.5 ± 2.5 µM; in data set [4] (setting [8]) it was 31.9 ± 13.2 µM; in data set [7] (Mycobacterium tuberculosis), 45 µM; in data set [5] (Leishmania donovani) it was 6.2 ± 0.2 µM. Moreover, the “L. amazonensis promastigote selectivity index (SI)” value in data set [1] is 20.7. Besides, in data set [3] (Table S2), the CC50 at 24 h stood at 424 µM. The “L. amazonensis amastigote selectivity index (SI)” value in data set [4] is reported as 13.3. The IC90 in data set [7] (Mycobacterium tuberculosis) is 76.4 µM. For the same compound, in data set [5], the “L. donovani promastigote selectivity index (SI)” value stood at 68.4.
Consider `COC(=O)CNC(=O)c1c(-c2cccc(Cl)c2)[n+]([O-])c2cc(OC)ccc2[n+]1[O-]` [Compound 4g, N-(6-Methoxy-1,4-dioxide-3-(3-chlorophenyl)quinoxaline-2-carbonyl)glycine methyl ester], for which the IC50 in data set [1] (setting [9]) was determined as 112 ± 13.7 µM; in data set [2], 77.5 ± 6.2 µM; in data set [4] (setting [11]), 23.2 ± 4.1 µM; in data set [7], 50 µM; in data set [5] it was 40 ± 6.7 µM. Further, in data set [7], the IC90 was 71.9 µM.
`COc1ccc2c(c1)[n+]([O-])c(-c1ccc(C(F)(F)F)cc1)c(C(=O)NCC(=O)O)[n+]2[O-]` [Compound 5h, 2-((Carboxymethyl)carbamoyl)-6-methoxy-3-(4-(trifluoromethyl)phenyl)quinoxaline 1,4-dioxide]: the IC50 in data set [1] (setting [12]) is above 229 µM; in data set [7] (Mycobacterium tuberculosis) it was 16.4 µM; in data set [5] (Leishmania donovani), above 229 µM. In data set [1], the “L. amazonensis promastigote selectivity index (SI)” value is reported as above 8. For the same compound, the CC50 at 24 h in data set [3] (Table S2) came to 1830 µM. Moreover, the IC90 in data set [7] (Mycobacterium tuberculosis) came to 22 µM.
Consider “N-(6-Methoxy-1,4-dioxide-3-(4-florophenyl)quinoxaline-2-carbonyl)glycine methyl ester [Compound 4i]”, for which the IC50 in data set [1] (setting [9]) came out at 117 ± 8 µM; in data set [2], 71 ± 11 µM; in data set [4] (setting [11]) it was 12.9 ± 1.7 µM; in data set [7], 47.2 µM; in data set [5], 46.9 ± 14.2 µM. Moreover, in data set [6] (Table S2), the CC50 is 379 ± 49.9 µM. Also, the concentration for an effect of 90% (IC90) in data set [7] turned out to be 66.5 µM.
For the compound `COC(=O)CNC(=O)c1c(-c2ccccc2C)[n+]([O-])c2cc(OC)ccc2[n+]1[O-]` [Compound 4k, N-(6-Methoxy-1,4-dioxide-3-(2-methylphenyl)quinoxaline-2-carbonyl)glycine methyl ester], the IC50 in data set [1] (setting [9]) amounted to 117 ± 14.3 µM; in data set [2], 72.2 ± 18.6 µM; in data set [4] (setting [10]), 7.2 µM; in data set [7], 25.9 µM; in data set [5], 23.9 ± 2.2 µM. Further, in data set [6] (Table S2), the CC50 came out at 330 ± 75.5 µM. For the same compound, the IC90 in data set [7] worked out at 44.6 µM.
